Read-outs that look alike come from different tables or passages of the source. Square brackets hold non-standard residues; d marks the D form. Ends that are not written are not given here. Peptide text beside a SMILES is read from it. AEEA = NCCOCCOCC(=O)O
Experiments:
[1] = system: Pseudomonas aeruginosa ATCC® 27853™; type: cell-based; parameters: Effects of Peptide Compounds on Pseudomonas aeruginosa ATCC ® 27853 ™: unit not given here; settings: Table 6
Method: (§1) In vitro bactericidal activity: The three peptide compounds BCC01-5RMP (SEQ ID NO: 21), BCC02-5RMP (SEQ ID NO: 22), and BCC03-5RMP (SEQ ID NO: 23) were assayed for in vitro bactericidal activity against Pseudomonas aeruginosa, Escherichia coli, Salmonella typhimurium, and Acinetobacter baumannii. The starting inoculum for all experiments was 1×10^6 colony forming units (CFU)/ml. The CFU remaining at the end of 60 to 180 minute incubation was determined, and the data plotted as a log reduction in CFU/ml.
For FIGS. 10-13, in vitro bactericidal assays were performed using a starting inoculum of 1×10^6 CFU/ml of the bacterial suspension. The CFU remaining at the end of the 60-180 minute incubation was determined, and the data was plotted as log reduction in CFU/ml.
In particular, each of the test peptides (CAP37 peptides 120-146WR, 120-146WH, and 95-122 (SEQ ID NOs: 30, 31, and 26, respectively)) was used at 25, 12.5, 6.25, and 3.12 μM. Gentamicin was used at 4 μg/ml. 1×10^6/ml Acinetobacter baumannii ATCC® BAA-747™ or Pseudomonas aeruginosa ATCC® 27853™ (American Type Culture Collection, Manassas, Va.) were incubated with the peptides, negative buffer control (tryptone saline), and positive control gentamicin at pH 5.5 or 7.2. A 60 minute incubation was used for Acinetobacter baumannii ATCC® BAA-747™, while a 180 minute incubation was used for Pseudomonas aeruginosa ATCC® 27853™. 50 μl aliquots were plated out on agar plates and incubated overnight. Colony forming units were counted after overnight incubation and CFU/ml calculated.
For FIG. 14, 1×10^6/ml Pseudomonas aeruginosa ATCC® 27853™ were incubated with each of the test peptides (CAP37 peptides 120-146WR, 120-146WH, 120-146QR, 120-146QH, 120-146QR-5RMP, and 120-146QH-5RMP (SEQ ID NOs: 30, 31, 28, 29, 32, and 33, respectively)) at 150, 75, and 37.5 μg/ml, or negative buffer control (tryptone saline), for 180 minutes at pH 5.5. 50 μl aliquots were plated out on agar plates and incubated overnight. Colony forming units were counted after overnight incubation and CFU/ml calculated.

[2] = system: E. coli ATCC® strain 25922™; type: cell-based, Escherichia coli; parameters: unit not given here; settings: Table 6
Method: as §1

[3] = parameters: species or system male Sprague Dawley rats; settings: rat, in vivo, iv
Method: The purpose of this example was to assess the pharmacokinetics, distribution, and excretion of ^14C-BCC03-5RMP (SEQ ID NO: 23) following a single intravenous administration to male rats. Pharmacokinetic, excretion, and distribution profiles of ^14C-BCC03-5RMP-derived radioactivity were examined in male Sprague Dawley rats following a single intravenous administration of ^14C-BCC03-5RMP (20 mg/kg; 125 μCi/kg). ^14C-BCC03-5RMP was formulated in 5% (v:v) dextrose in water, pH 5.5 and was administered at a dose volume of 5 mL/kg. For assessment of pharmacokinetics of total radioactivity (Group 1), blood was collected at 0.25, 0.5, 1, 2, 4, 8, 24, 48, and 72 hours postdose. For assessment of excretion profiles, urine was collected from 0-8 and 8-24 hours postdose, and at 24-hour intervals through 168 hours postdose. Feces was collected at 24-hour intervals through 168 hours postdose. For assessment of distribution profiles, one animal/time point was sacrificed at 0.25, 1, 4, 24, and 72 hours postdose, and the carcasses were prepared for quantitative whole-body autoradiography (QWBA). Concentrations of radioactivity in whole blood, plasma, urine, feces (after oxidation), cage rinse, cage wash, and carcass were determined by liquid scintillation counting (LSC). Tissue concentrations were calculated by interpolation from each standard curve using MCID™ analysis software (InterFocus Imaging Ltd Corp., UK). Pharmacokinetic parameters for total radioactivity in blood and plasma were calculated using WinNonlin Professional Edition (version 5.2, Pharsight Corporation, St. Louis, Mo.).

[4] = system: human corneal epithelial cell (HCEC); experiment: HCEC chemotaxis, modified Boyden chemotaxis chamber assay; type: cell-based; settings: for HCEC migration versus buffer control: 120-146QH 10^−4 to 10^−10 M, 120-146QR 10^−6 and 10^−8 M, HB-EGF 50 ng/ml, rCAP37 250 ng/ml, 3 hours
Method: The effect of buffer control (0.1% BSA in Gey's buffer), heparin binding-epidermal growth factor (HB-EGF, 50 ng/ml), recombinant CAP37 (rCAP37, 250 ng/ml), 120-146QH ([…], 10^−10M, 10^−8M, 10^−4M, and 10^−4M,) and 120-146QR (10^−10M, 10^−8M, 10^−6M, and 10^−4M) on HCEC chemotaxis was determined by the modified Boyden chemotaxis chamber method. HCEC chemotaxis was measured in response to HB-EGF, rCAP37, and peptides 120-146QH (SEQ ID NO: 29) and 120-146QR (SEQ ID NO: 28) after incubation for 3 hours at 37° C. Chemotaxis is expressed as a percent migration. The buffer control (no chemoattractant) is arbitrarily assigned the value of 100% migration. Data are expressed as means±SEM and are calculated from 6 observations for each test point. **P<0.01 by Wilcoxon signed-rank test as compared to controls.
Chemotaxis assays were performed using the modified Boyden chemotaxis chamber assay. Peptide 120-146QH was used at 10^−4M, 10^−6M, 10^−8 M, 10^−10 M, and 10^−12M, and peptide 120-146QR was used at 10^−4M, 10^−6M, 10^−8 M, and 10^−10 M.

Molecule: CC[C@H](C)[C@H](NC(=O)[C@H](CC(C)C)NC(=O)[C@H](C)NC(=O)CNC(=O)CNC(=O)[C@H](CS)NC(=O)[C@H](Cc1ccccc1)NC(=O)[C@H](Cc1c[nH]cn1)NC(=O)[C@H](CCCNC(=N)N)NC(=O)CNC(=O)[C@H](CCC(N)=O)NC(=O)[C@H](CC(N)=O)NC(=O)COCCOCCNC(=O)COCCOCCN)C(=O)N[C@@H](Cc1c[nH]cn1)C(=O)N[C@@H](C)C(=O)N[C@@H](CCCNC(=N)N)C(=O)N[C@@H](Cc1ccccc1)C(=O)N[C@H](C(=O)N[C@@H](CCSC)C(=O)N[C@H](C(=O)N[C@@H](C)C(=O)N[C@@H](C)C(=O)N[C@@H](CO)C(=O)N[C@@H](CO)C(=O)N[C@@H](Cc1ccccc1)C(=O)N[C@@H](CCC(N)=O)C(=O)O)[C@@H](C)O)C(C)C [BCC03-MP] (H-[AEEA][AEEA]NQGRHFCGGALIHARFVMTAASSFQ-OH; N-terminus and C-terminus assumed)
- Effects of Peptide Compounds on Pseudomonas aeruginosa ATCC ® 27853 ™ ([1]; Peptide Conc 12.5 μg/ml): −45.6
- Effects of Peptide Compounds on Pseudomonas aeruginosa ATCC ® 27853 ™ ([1]; Peptide Conc 50 μg/ml): −2.9
- Effects of Peptide Compounds on Pseudomonas aeruginosa ATCC ® 27853 ™ ([1]; Peptide Conc 100 μg/ml): 44.0
- Effects of Peptide Compounds on Escherichia coli ATCC ® 25922 ™ ([2]; Peptide Conc 6.25 μg/ml): 6.4
- Effects of Peptide Compounds on Escherichia coli ATCC ® 25922 ™ ([2]; Peptide Conc 200 μg/ml): 46.0

Molecule: CC[C@H](C)[C@H](NC(=O)[C@H](CC(C)C)NC(=O)[C@H](C)NC(=O)CNC(=O)CNC(=O)[C@H](CS)NC(=O)[C@H](Cc1ccccc1)NC(=O)[C@H](Cc1c[nH]cn1)NC(=O)[C@H](CCCNC(=N)N)NC(=O)CNC(=O)[C@H](CCC(N)=O)NC(=O)[C@H](CC(N)=O)NC(=O)[C@H](CCCNC(=N)N)NC(=O)[C@H](CCCNC(=N)N)NC(=O)[C@H](CCCNC(=N)N)NC(=O)[C@H](CCCNC(=N)N)NC(=O)COCCOCCNC(=O)COCCOCCN)C(=O)N[C@@H](Cc1c[nH]cn1)C(=O)N[C@@H](C)C(=O)N[C@@H](CCCNC(=N)N)C(=O)N[C@@H](Cc1ccccc1)C(=O)N[C@H](C(=O)N[C@@H](CCSC)C(=O)N[C@H](C(=O)N[C@@H](C)C(=O)N[C@@H](C)C(=O)N[C@@H](CO)C(=O)N[C@@H](CO)C(=O)N[C@@H](Cc1ccccc1)C(=O)N[C@@H](CCC(N)=O)C(=O)N[C@@H](CCCNC(=N)N)C(=O)O)[C@@H](C)O)C(C)C [^14C-BCC03-5RMP] (H-[AEEA][AEEA]RRRRNQGRHFCGGALIHARFVMTAASSFQR-OH; N-terminus assumed)
- administered radioactivity eliminated within the first 48 hours postdose [3]: approximately 55%
- Clearance of radioactivity in plasma compared to blood ([3]; 20 mg/kg): approximately 2 fold
- exposure (AUC0-∞) in blood compared to plasma ([3]; 20 mg/kg): approximately 2 fold
- volume of distribution of total radioactivity in blood compared to plasma ([3]; 20 mg/kg): approximately 1.6 fold

Molecule: GTRCQVAGWGSQHSGGRLSRFPRFVNV [Peptide 120-146QH]
- HCEC migration versus buffer control [4]: significantly increase migration
- HCEC migration compared with whole CAP37 protein ([4]; 120-146QH at 10^−6 M and 10^−8 M): comparable

Molecule: GTRCQVAGWGSQRSGGRLSRFPRFVNV [Peptide 120-146QR]
- HCEC migration versus buffer control [4]: significantly increase migration

Molecule: RRRRNQGRHFCGGALIHARFVMTAASCFQR (5-arginine peptide derivative of CAP37 peptide) [SEQ ID NO: 18 (Linear)]
- Effects of Peptide Compounds on Pseudomonas aeruginosa ATCC ® 27853 ™ ([1]; Peptide Conc 87.6 μg/ml): 100.0
- Effects of Peptide Compounds on Escherichia coli ATCC ® 25922 ™ ([2]; Peptide Conc 262.8 μg/ml): 100.0

Molecule: RRRRNQGRHFCGGALIHARFVMTAASCFQR (not fully specified; cysteine pairing not given here) [SEQ ID NO: 18 (Cyclized)]
- Effects of Peptide Compounds on Pseudomonas aeruginosa ATCC ® 27853 ™ ([1]; Peptide Conc 3.125 μg/ml): 100.0
- Effects of Peptide Compounds on Pseudomonas aeruginosa ATCC ® 27853 ™ ([1]; Peptide Conc 6.25 μg/ml): 100.0
- Effects of Peptide Compounds on Pseudomonas aeruginosa ATCC ® 27853 ™ ([1]; Peptide Conc 12.5 μg/ml): 100.0
- Effects of Peptide Compounds on Pseudomonas aeruginosa ATCC ® 27853 ™ ([1]; Peptide Conc 25 μg/ml): 100.0
- Effects of Peptide Compounds on Pseudomonas aeruginosa ATCC ® 27853 ™ ([1]; Peptide Conc 50 μg/ml): 100.0
- Effects of Peptide Compounds on Pseudomonas aeruginosa ATCC ® 27853 ™ ([1]; Peptide Conc 100 μg/ml): 100.0
- Effects of Peptide Compounds on Pseudomonas aeruginosa ATCC ® 27853 ™ ([1]; Peptide Conc 200 μg/ml): 100.0
- Effects of Peptide Compounds on Pseudomonas aeruginosa ATCC ® 27853 ™ ([1]; Peptide Conc 400 μg/ml): 100.0
- Effects of Peptide Compounds on Escherichia coli ATCC ® 25922 ™ ([2]; Peptide Conc 25 μg/ml): 38.0
- Effects of Peptide Compounds on Escherichia coli ATCC ® 25922 ™ ([2]; Peptide Conc 400 μg/ml): 82.0

Source: US9862748B2, “Peptide compounds and methods of production and use thereof” (priority 2012, dated 2018)
